# Laboratory results published in patent US6022561A, “Bilayers preparations” (Scotia Lipidteknik AB, priority 1994, dated 2000).
# Structures can show the parent of a compound that is named as a salt.
# Experiments:
# [1] = tested on: haemolysis; test: Haemolysis in vivo, preliminary studies; design: species or system rats
# [2] = tested on: human whole blood; test: Test 4. In vitro haemolysis test; format: cell-based; settings: Li-GLA dissolved in 0.9% saline
# Experimental: The samples were then incubated at 37° C. in an oxygen:carbon dioxide, 95:5, enriched atmosphere, 3 l/min, for 1 h, with constant gentle shaking. […] All samples were then spun for 2 min in an Eppendorf Microfuge (Brinkman Instruments Ltd, Canada) and finally analyzed on a centrifugal analyser (Cobas Bioanalyser; Hoffmann-La Roche Ltd, Canada) with UV scan of 540 nm.
# [3] = tested on: cancer cells; test: Activity against cancer cells in vitro; format: cell-based
smiles,measurement,setting,value
"CCCCC/C=C\C/C=C\C/C=C\CCCCC(=O)O [Li-GLA, lithium salt of gammalinolenic acid]","""Red urine"" in rats",[1],does
same,Concentration causing 100% haemolysis,[2],4000 to 5000 µM
same,"Activity against cancer cells in vitro, free vs liposomal Li-GLA",[3],almost identical
